Test results: ChEMBL document CHEMBL1909046, “DrugMatrix in vitro pharmacology data”

Tests used:
[1] = target: Tyrosine-protein kinase Lck (Homo sapiens, UniProt P06239); test: DRUGMATRIX: Protein Tyrosine Kinase, LCK enzyme inhibition (substrate: Poly(Glu:Tyr)); type: cell-based, Insect cells; settings: insect cells; Not Active = under 50% inhibition at 10 µM
[2] = DRUGMATRIX: Purinergic P2X radioligand binding (ligand: [3H] alpha, beta-Methylene-ATP); type: cell membranes, Oryctolagus cuniculus, New Zealand albino, Urinary bladder, Membrane; settings: Not Active = under 50% inhibition at 10 µM
[3] = target: T1, Alpha-2A adrenergic receptor (Homo sapiens, UniProt P08913); type: cell membranes, Sf9, Membrane; settings: sf9; also: in other assays of this panel Not Active means under 50% inhibition at 10 µM
T1 sequence (P08913 whole entry): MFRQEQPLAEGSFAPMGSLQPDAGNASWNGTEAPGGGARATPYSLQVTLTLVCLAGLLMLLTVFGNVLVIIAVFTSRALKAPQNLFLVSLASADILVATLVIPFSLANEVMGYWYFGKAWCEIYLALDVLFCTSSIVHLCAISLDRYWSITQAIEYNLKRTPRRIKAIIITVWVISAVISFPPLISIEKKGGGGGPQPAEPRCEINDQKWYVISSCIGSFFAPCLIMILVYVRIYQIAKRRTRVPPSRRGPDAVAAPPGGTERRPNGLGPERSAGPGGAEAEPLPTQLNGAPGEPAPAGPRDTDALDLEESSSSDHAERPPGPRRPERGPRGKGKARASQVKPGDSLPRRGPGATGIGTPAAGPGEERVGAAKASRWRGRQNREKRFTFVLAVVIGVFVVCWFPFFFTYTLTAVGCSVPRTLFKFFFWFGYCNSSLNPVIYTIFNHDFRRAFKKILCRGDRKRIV

[4] = target: T2, Progesterone receptor (Bos taurus, UniProt Q690N0); test: DRUGMATRIX: Progesterone radioligand binding (ligand: [3H] R-5020); type: tissue-based, Uterus; settings: Not Active = under 50% inhibition at 10 µM; for Ki: read-out: Ki
T2 sequence (Q690N0 whole entry): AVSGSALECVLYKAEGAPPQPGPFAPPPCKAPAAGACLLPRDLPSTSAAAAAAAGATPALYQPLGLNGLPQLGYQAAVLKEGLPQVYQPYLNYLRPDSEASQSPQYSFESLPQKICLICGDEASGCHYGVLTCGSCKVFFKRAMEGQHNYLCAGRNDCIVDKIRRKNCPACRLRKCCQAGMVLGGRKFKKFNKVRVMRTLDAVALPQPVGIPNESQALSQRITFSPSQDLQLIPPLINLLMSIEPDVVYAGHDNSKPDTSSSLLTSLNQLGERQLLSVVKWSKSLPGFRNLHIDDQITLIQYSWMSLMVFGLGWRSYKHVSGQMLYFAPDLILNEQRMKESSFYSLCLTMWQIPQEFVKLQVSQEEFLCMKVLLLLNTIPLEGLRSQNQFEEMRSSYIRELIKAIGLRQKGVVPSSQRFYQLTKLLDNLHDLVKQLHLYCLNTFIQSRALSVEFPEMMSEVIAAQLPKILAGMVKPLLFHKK

[5] = target: Glycine receptor (Rattus norvegicus, UniProt P22771+P24524+P07727+P20781); type: cell membranes, Wistar, Spinal cord, Membrane; also: in other assays of this panel Not Active means under 50% inhibition at 10 µM

Sequence of Tyrosine-protein kinase Lck (P06239 whole entry): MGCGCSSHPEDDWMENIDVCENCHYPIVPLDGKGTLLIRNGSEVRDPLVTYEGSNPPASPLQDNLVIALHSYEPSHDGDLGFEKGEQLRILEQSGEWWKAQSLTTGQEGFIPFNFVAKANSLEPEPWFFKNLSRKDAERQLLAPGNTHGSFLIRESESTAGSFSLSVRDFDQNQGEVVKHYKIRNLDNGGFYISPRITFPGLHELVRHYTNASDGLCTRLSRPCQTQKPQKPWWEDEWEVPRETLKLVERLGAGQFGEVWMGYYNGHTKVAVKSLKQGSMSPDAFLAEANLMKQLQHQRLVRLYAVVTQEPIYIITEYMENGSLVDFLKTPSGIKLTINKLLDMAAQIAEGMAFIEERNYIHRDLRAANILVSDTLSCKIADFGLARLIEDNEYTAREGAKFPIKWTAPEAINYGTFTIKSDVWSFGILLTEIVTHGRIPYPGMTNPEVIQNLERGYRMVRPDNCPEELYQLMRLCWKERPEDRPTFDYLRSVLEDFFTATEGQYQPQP

With `CC1(C)S[C@@H]2[C@H](NC(=O)[C@H](N)c3ccccc3)C(=O)N2[C@H]1C(=O)O` [AMPICILLIN] the IC50 [1] was “Not Active”, the IC50 [2] was “Not Active” and the Ki [2] was “Not Active”. For the same compound, the IC50 [3] was “Not Active”, the IC50 [4] was “Not Active” and the IC50 [5] was “Not Active”.
In the case of `COc1ccc(C2C(=O)c3ccccc3C2=O)cc1` [ANISINDIONE], the IC50 [1] is reported as “Not Active”, the IC50 [2] is reported as “Not Active” and the Ki [2] is reported as “Not Active”. For the same compound, the IC50 [3] was “Not Active”, the IC50 [4] was “Not Active” and the IC50 [5] was “Not Active”.
With `O=C1O[C@H]([C@@H](O)CO)C(O)=C1O` [ASCORBIC ACID] the IC50 [1] was “Not Active”, the IC50 [2] was “Not Active” and the Ki [2] was “Not Active”. For the same compound, the IC50 [3] was “Not Active”, the IC50 [4] was “Not Active” and the IC50 [5] was “Not Active”.
For `CN1[C@@H]2CC[C@H]1C[C@@H](OC(=O)C(CO)c1ccccc1)C2` (some centres undefined) [ATROPINE], the IC50 [1] was “Not Active”, the IC50 [2] was “Not Active” and the Ki [2] was “Not Active”. The IC50 [3] was “Not Active”, the IC50 [4] was “Not Active” and the IC50 [5] was “Not Active”.
With `CC(C(=O)O)c1ccc2oc(-c3ccc(Cl)cc3)nc2c1` (centres undefined) [BENOXAPROFEN] the IC50 [1] was “Not Active”, the IC50 [2] was “Not Active” and the Ki [2] was “Not Active”. The IC50 [3] was “Not Active”, the IC50 [4] was “Not Active” and the IC50 [5] was “Not Active”.
In the case of `COc1ccc2cc3[n+](cc2c1OC)CCc1cc2c(cc1-3)OCO2.[Cl-]` [BERBERINE CHLORIDE], the IC50 [1] is reported as “Not Active”, the IC50 [2] is reported as “Not Active” and the Ki [2] is reported as “Not Active”. The IC50 [3] was “Not Active”, the IC50 [4] was “Not Active” and the IC50 [5] was “Not Active”.
For `O=C(O)CCNC(=O)c1ccccc1` [BETAMIPRON], the IC50 [1] was “Not Active”, the IC50 [2] was “Not Active” and the Ki [2] was “Not Active”. For the same compound, the IC50 [3] was “Not Active”, the IC50 [4] was “Not Active” and the IC50 [5] was “Not Active”.
With `CC(=O)Oc1ccc(C(c2ccc(OC(C)=O)cc2)c2ccccn2)cc1` [BISACODYL] the IC50 [1] was “Not Active”, the IC50 [2] was “Not Active” and the Ki [2] was “Not Active”. The IC50 [3] was “Not Active”, the IC50 [4] was “Not Active” and the IC50 [5] was “Not Active”.
For `Cc1cc2c(OCC(CNC(C)(C)C)OC(=O)c3ccccc3)cccc2[nH]1` (centres undefined) [BOPINDOLOL], the IC50 [1] was “Not Active”, the IC50 [2] was “Not Active” and the Ki [2] was “Not Active”. The IC50 [3] was “Not Active”, the IC50 [4] was “Not Active” and the IC50 [5] was “Not Active”.
With `CN(C)[C@@H]1C(O)=C(C(N)=O)C(=O)[C@@]2(O)C(O)=C3C(=O)c4c(O)ccc(Cl)c4[C@@](C)(O)[C@H]3C[C@@H]12` [CHLORTETRACYCLINE] the IC50 [1] was “Not Active”, the IC50 [2] was “Not Active” and the Ki [2] was “Not Active”. For the same compound, the IC50 [3] was “Not Active”, the IC50 [4] was “Not Active” and the IC50 [5] was “Not Active”.
For `CN/C(=N\CCSCc1nc[nH]c1C)NC#N` [CIMETIDINE], the IC50 [1] was “Not Active”, the IC50 [2] was “Not Active” and the Ki [2] was “Not Active”. For the same compound, the IC50 [3] was “Not Active”, the IC50 [4] was “Not Active” and the IC50 [5] was “Not Active”.
With `CCC(=O)O[C@]1(C(=O)CCl)[C@@H](C)C[C@H]2[C@@H]3CCC4=CC(=O)C=C[C@]4(C)[C@@]3(F)[C@@H](O)C[C@@]21C` [CLOBETASOL PROPIONATE] the IC50 [1] was “Not Active”, the IC50 [2] was “Not Active” and the Ki [2] was “Not Active”. The IC50 [3] was “Not Active”, the IC50 ([4]; read-out: IC50) was 12 nM and the Ki [4] was 1.52 nM. For the same compound, the IC50 [5] was “Not Active”.
For `O=C1CN=C(c2ccccc2Cl)c2cc([N+](=O)[O-])ccc2N1` [CLONAZEPAM], the IC50 [1] was “Not Active”, the IC50 [2] was “Not Active” and the Ki [2] was “Not Active”. The IC50 [3] was “Not Active”, the IC50 [4] was “Not Active” and the IC50 [5] was “Not Active”.
With `Nc1ccn([C@@H]2O[C@H](CO)[C@@H](O)[C@@H]2O)c(=O)n1` [CYTARABINE] the IC50 [1] was “Not Active”, the IC50 [2] was “Not Active” and the Ki [2] was “Not Active”. For the same compound, the IC50 [3] was “Not Active”, the IC50 [4] was “Not Active” and the IC50 [5] was “Not Active”.
For `C[C@@H]1C[C@H]2[C@@H]3CCC4=CC(=O)C=C[C@]4(C)[C@@]3(F)[C@@H](O)C[C@]2(C)[C@H]1C(=O)CO` [DESOXIMETASONE], the IC50 [1] was “Not Active”, the IC50 [2] was “Not Active” and the Ki [2] was “Not Active”. For the same compound, the IC50 [3] was “Not Active”, the IC50 ([4]; read-out: IC50) was 84 nM and the Ki [4] was 11 nM. For the same compound, the IC50 [5] was “Not Active”.
With `C[C@@H]1C[C@H]2[C@@H]3CCC4=CC(=O)C=C[C@]4(C)[C@@]3(F)[C@@H](O)C[C@]2(C)[C@@]1(O)C(=O)CO` [DEXAMETHASONE] the IC50 [1] was “Not Active”, the IC50 [2] was “Not Active” and the Ki [2] was “Not Active”. For the same compound, the IC50 [3] was “Not Active”, the IC50 ([4]; read-out: IC50) was 23300 nM and the Ki [4] was 3040 nM. The IC50 [5] was “Not Active”.
